Values of other authors as cited in patent publication US9669111B2, “Device for the diagnosis of inflammatory tissues in dental applications” (THOMMEN MEDICAL AG, priority 2012, dated 2017).
Structures can show the parent of a compound that is named as a salt.

What was measured:
[1] = tested on: human tongue; details: for concentration sensed down to (taste recognition): human tongue, average human
[2] = tested on: human volunteers (bitter taste); details: reciprocal of the dilution barely noticed as bitter; reference for calibration

O=C1NS(=O)(=O)c2ccccc21 [saccharin]
concentration sensed down to (taste recognition) [1]: 0.02 mM

C=C[C@H]1C[N@@]2CC[C@H]1C[C@H]2[C@H](O)c1ccnc2ccc(OC)cc12 [quinine]
sensory recognition threshold ([1]; human): about 0.0004 mmol/L

C=C[C@H]1C[N@@]2CC[C@H]1C[C@H]2[C@H](O)c1ccnc2ccc(OC)cc12 [quinine-HCl]
bitter value [2]: 200,000

C=C[C@H]1C[N@@]2CC[C@H]1C[C@H]2[C@H](O)c1ccnc2ccc(OC)cc12 [Quinine sulfate]
concentration sensed down to (taste recognition) [1]: 0.0004 mM
